The target in one assay is human TLR8 (Homo sapiens (Human), UniProt Q9NR97). Briefly: TLR8 inhibition reporter assay (HEK-Blue cells, SEAP reporter, R848 stimulation).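 Note: compounds tested from 0.05 nM to 50 µM, 22 h at 37 °C, SEAP measured with HEK-Blue Detection, inhibition relative to agonist plus DMSO versus a known inhibitor.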 The conditions noted are these: read-out: TLR8 IC50, HEK-Blue cells overexpressing human TLR8, R848 15.9 μM. (Reporter assays use an easily measured gene product as a stand-in for the process of interest.)
human TLR8, sequence (Q9NR97 27-1041): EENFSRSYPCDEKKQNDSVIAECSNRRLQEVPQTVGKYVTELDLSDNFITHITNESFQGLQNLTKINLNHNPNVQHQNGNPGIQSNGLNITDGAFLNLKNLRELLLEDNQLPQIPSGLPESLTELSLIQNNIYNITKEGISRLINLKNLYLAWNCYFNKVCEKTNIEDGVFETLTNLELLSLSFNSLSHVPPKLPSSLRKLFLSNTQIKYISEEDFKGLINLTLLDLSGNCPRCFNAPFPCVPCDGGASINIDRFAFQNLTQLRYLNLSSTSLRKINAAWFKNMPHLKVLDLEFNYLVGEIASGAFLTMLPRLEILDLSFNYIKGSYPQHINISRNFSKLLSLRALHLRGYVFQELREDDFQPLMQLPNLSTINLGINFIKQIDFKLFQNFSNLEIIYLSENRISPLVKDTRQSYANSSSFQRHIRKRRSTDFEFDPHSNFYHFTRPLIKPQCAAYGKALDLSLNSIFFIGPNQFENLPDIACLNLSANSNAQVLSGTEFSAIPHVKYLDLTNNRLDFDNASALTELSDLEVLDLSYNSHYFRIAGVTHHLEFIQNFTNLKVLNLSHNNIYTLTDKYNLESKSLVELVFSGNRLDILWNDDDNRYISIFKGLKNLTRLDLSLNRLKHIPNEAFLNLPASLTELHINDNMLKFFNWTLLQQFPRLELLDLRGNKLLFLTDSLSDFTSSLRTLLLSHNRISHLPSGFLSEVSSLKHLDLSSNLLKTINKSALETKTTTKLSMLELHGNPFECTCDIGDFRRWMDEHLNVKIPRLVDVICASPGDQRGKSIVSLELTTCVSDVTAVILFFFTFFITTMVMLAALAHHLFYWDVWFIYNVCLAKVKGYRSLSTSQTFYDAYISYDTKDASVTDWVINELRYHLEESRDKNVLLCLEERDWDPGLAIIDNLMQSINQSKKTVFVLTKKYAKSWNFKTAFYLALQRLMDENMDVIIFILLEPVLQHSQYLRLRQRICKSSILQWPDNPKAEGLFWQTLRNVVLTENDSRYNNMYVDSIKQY
Another assay addresses human TLR9 (Homo sapiens (Human), UniProt Q9NR96). The assay can be described thus: TLR9 inhibition reporter assay (HEK-Blue cells, SEAP reporter, ODN2006 stimulation).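 Note: compounds tested over 0.05 nM to 50 µM, 22 h incubation, inhibition taken as SEAP signal drop from agonist plus DMSO wells toward a known inhibitor control.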 The settings on record: read-out: TLR9 IC50, HEK-Blue cells overexpressing human TLR9, ODN2006 5 nM.
The target in a further assay is human TLR7 (Homo sapiens (Human), UniProt Q9NYK1). Briefly: TLR7 inhibition reporter assay (HEK-Blue cells, SEAP reporter, gardiquimod stimulation). The class given is cell-based. The settings on record: HEK-Blue cells overexpressing human TLR7, gardiquimod 7.5 μM.
human TLR7, sequence (Q9NYK1 27-1049): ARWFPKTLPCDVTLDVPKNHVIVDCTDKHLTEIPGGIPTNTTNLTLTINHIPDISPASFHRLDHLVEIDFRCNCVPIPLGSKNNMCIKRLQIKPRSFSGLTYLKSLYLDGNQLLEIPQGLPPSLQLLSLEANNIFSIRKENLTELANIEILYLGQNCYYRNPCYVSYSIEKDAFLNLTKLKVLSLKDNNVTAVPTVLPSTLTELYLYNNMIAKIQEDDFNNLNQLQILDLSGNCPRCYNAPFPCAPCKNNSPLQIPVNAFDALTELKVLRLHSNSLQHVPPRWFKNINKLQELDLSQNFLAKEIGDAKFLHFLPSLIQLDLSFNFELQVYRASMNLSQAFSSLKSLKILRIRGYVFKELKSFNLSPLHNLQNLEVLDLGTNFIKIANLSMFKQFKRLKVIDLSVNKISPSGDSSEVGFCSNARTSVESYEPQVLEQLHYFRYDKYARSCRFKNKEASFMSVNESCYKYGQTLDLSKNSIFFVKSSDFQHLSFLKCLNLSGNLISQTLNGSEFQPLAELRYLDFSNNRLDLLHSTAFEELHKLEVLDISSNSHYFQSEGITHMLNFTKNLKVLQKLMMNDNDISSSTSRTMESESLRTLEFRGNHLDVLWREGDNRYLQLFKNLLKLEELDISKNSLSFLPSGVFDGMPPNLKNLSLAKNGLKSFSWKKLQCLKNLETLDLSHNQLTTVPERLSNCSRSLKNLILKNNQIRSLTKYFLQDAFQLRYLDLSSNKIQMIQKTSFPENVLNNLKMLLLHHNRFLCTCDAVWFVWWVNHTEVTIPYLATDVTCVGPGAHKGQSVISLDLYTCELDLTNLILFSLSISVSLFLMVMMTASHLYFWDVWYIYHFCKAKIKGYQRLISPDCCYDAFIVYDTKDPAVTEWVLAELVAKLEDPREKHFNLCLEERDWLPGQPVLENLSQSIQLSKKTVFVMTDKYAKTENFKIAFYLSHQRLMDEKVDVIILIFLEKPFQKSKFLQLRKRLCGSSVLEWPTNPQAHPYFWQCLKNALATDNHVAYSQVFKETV

Results on 25 molecules are retold here after US10660877B2 (BRISTOL-MYERS SQUIBB COMPANY, priority 2016, dated 2020).

Molecules are shown by their SMILES.

human TLR9, sequence (Q9NR96 26-1032): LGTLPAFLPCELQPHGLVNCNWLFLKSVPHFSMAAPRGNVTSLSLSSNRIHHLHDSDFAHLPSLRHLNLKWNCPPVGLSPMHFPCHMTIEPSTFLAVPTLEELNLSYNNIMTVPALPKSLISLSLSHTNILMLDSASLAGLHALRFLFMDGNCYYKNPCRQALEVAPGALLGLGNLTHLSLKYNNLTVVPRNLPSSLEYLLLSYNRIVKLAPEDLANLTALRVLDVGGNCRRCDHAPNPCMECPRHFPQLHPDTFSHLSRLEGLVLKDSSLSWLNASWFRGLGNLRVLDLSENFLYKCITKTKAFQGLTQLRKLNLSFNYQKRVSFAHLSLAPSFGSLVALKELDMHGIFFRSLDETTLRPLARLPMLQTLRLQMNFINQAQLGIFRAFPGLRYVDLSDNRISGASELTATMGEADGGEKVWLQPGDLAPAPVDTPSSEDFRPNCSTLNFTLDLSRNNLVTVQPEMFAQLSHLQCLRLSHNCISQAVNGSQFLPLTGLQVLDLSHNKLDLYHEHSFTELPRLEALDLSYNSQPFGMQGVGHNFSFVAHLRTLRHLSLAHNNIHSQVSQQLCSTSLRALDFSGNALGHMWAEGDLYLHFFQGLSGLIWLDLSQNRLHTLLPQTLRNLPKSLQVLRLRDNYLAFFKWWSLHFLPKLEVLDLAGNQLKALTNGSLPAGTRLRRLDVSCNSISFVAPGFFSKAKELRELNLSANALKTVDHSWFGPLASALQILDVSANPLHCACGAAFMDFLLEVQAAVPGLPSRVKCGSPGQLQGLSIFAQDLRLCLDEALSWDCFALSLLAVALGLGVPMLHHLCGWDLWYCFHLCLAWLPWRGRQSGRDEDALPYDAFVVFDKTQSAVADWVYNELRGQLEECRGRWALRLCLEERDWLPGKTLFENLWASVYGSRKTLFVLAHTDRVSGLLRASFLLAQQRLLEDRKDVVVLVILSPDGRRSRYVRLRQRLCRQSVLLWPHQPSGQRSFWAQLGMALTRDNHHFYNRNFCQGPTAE

For `Cc1cc(-c2[nH]c3ccc(C4CCN(C(=O)[C@H]5CCC[C@@]5(C)N)CC4)cc3c2C(C)C)ccn1` [Example 569, ((1S,2R)-2-amino-2-methylcyclopentyl)(4-(3-isopropyl-2-(2-methylpyridin-4-yl)-1H-indol-5-yl)piperidin-1-yl)methanone], the IC50 at human TLR8 was 0.015 µM; on human TLR9, 0.912 µM; on human TLR7, 0.0144 µM.

As for `CNCCC(=O)N1CCC(c2ccc3[nH]c(-c4ccnc(C)c4)c(C(C)C)c3c2)CC1` [Example 570, 1-(4-(3-isopropyl-2-(2-methylpyridin-4-yl)-1H-indol-5-yl)piperidin-1-yl)-3-(methylamino)propan-1-one], the IC50 came to 0.012 µM on human TLR8, 0.971 µM on human TLR9 and 0.0131 µM on human TLR7.

Take `Cc1cc(-c2[nH]c3ccc(C4CCN(C(=O)C5CCNC5)CC4)cc3c2C(C)C)ccn1` (stereo not drawn) [Example 572, (4-(3-isopropyl-2-(2-methylpyridin-4-yl)-1H-indol-5-yl)piperidin-1-yl)(pyrrolidin-3-yl)methanone]: the IC50 is 0.0186 µM at human TLR8, 0.692 µM at human TLR9 and 0.0051 µM against human TLR7.

In the case of `Cc1cc(-c2[nH]c3ccc(C4CCN(C(=O)C5CCNCC5)CC4)cc3c2C(C)C)ccn1` [Example 573, (4-(3-isopropyl-2-(2-methylpyridin-4-yl)-1H-indol-5-yl)piperidin-1-yl)(piperidin-4-yl)methanone], the IC50 stood at 0.0339 µM at human TLR8, 0.379 µM at human TLR9 and 0.0129 µM against human TLR7.

Turning to `Cc1cc(-c2[nH]c3ccc(C4CCN(C(=O)[C@@H](N)Cc5c[nH]cn5)CC4)cc3c2C(C)C)ccn1` [Example 574, (S)-2-amino-3-(1H-imidazol-4-yl)-1-(4-(3-isopropyl-2-(2-methylpyridin-4-yl)-1H-indol-5-yl)piperidin-1-yl)propan-1-one], the 50% inhibitory concentration (IC50) at human TLR8 turned out to be 0.0156 µM; at human TLR9 it was 0.851 µM; at human TLR7 it was 0.0829 µM.

Consider `Cc1cc(-c2[nH]c3ccc(C4CCN(C(=O)C5CCN(Cc6ccccc6)C5)CC4)cc3c2C(C)C)ccn1` (stereo not drawn) [Example 575, (1-benzylpyrrolidin-3-yl)(4-(3-isopropyl-2-(2-methylpyridin-4-yl)-1H-indol-5-yl)piperidin-1-yl)methanone], for which the IC50 at human TLR8 was 0.0185 µM; at human TLR9 it was 1.06 µM; on human TLR7 it was 0.034 µM.

For the molecule `Cc1cc(-c2[nH]c3ccc(C4CCN(C(=O)[C@@H]5CCC[C@H](N)C5)CC4)cc3c2C(C)C)ccn1` [Example 576, ((1R,3S)-3-aminocyclohexyl)(4-(3-isopropyl-2-(2-methylpyridin-4-yl)-1H-indol-5-yl)piperidin-1-yl)methanone], the IC50 on human TLR8 came to 0.0241 µM; on human TLR9, 0.731 µM; on human TLR7, 0.0151 µM.

For the molecule `Cc1cc(-c2[nH]c3ccc(C4CCN(C(=O)[C@@H](N)CCCN)CC4)cc3c2C(C)C)ccn1` [Example 577, (S)-2,5-diamino-1-(4-(3-isopropyl-2-(2-methylpyridin-4-yl)-1H-indol-5-yl)piperidin-1-yl)pentan-1-one], the IC50 came to 0.0584 µM on human TLR8, 8.13 µM at human TLR9 and 0.121 µM on human TLR7.

Turning to `Cc1cc(-c2[nH]c3ccc(C4CCN(C(=O)CCN(C)C)CC4)cc3c2C(C)C)ccn1` [Example 578, 3-(dimethylamino)-1-(4-(3-isopropyl-2-(2-methylpyridin-4-yl)-1H-indol-5-yl)piperidin-1-yl)propan-1-one], the IC50 on human TLR8 was 0.0057 µM; on human TLR9, 0.722 µM; on human TLR7 it was 0.0071 µM.

Consider `Cc1cc(-c2[nH]c3ccc(C4CCN(C(=O)[C@@H](N)CCCCN)CC4)cc3c2C(C)C)ccn1` [Example 579, (S)-2,6-diamino-1-(4-(3-isopropyl-2-(2-methylpyridin-4-yl)-1H-indol-5-yl)piperidin-1-yl)hexan-1-one], for which the values for the IC50 on human TLR8, at human TLR9 and against human TLR7 were 0.098 µM, 4.36 µM and 0.201 µM, respectively.

As to `Cc1cc(-c2[nH]c3ccc(C4CCN(C(=O)[C@H]5C[C@H]6CC[C@@H](C5)N6)CC4)cc3c2C(C)C)ccn1` [Example 580, ((1R,3r,5S)-8-azabicyclo[3.2.1]octan-3-yl)(4-(3-isopropyl-2-(2-methylpyridin-4-yl)-1H-indol-5-yl)piperidin-1-yl)methanone], the IC50 at human TLR8 was 0.0537 µM; at human TLR9 it was 0.508 µM; against human TLR7, 0.0672 µM.

For `Cc1cc(-c2[nH]c3ccc(C4CCN(C(=O)[C@@H]5C[C@H](O)CCN5)CC4)cc3c2C(C)C)ccn1` [Example 581, ((2S,4R)-4-hydroxypiperidin-2-yl)(4-(3-isopropyl-2-(2-methylpyridin-4-yl)-1H-indol-5-yl)piperidin-1-yl)methanone], the IC50 at human TLR8 is 0.0069 µM; at human TLR9 it was 0.967 µM; against human TLR7 it was 0.0106 µM.

`Cc1nccc(-c2[nH]c3ccc(C4CCN(C(=O)C5CC(=O)N(C)C5)CC4)cc3c2C(C)C)c1F` (stereo not drawn) [Example 582, 4-(4-(2-(3-fluoro-2-methylpyridin-4-yl)-3-isopropyl-1H-indol-5-yl)piperidine-1-carbonyl)-1-methylpyrrolidin-2-one]: the IC50 was 0.048 µM on human TLR8, above 50 µM on human TLR9 and 0.0301 µM against human TLR7.

For the molecule `Cc1cc(-c2[nH]c3ccc(C4CCN(C(=O)C5CC(=O)N(C)C5)CC4)cc3c2C(C)C)c(F)cn1` (stereo not drawn) [Example 583, 4-(4-(2-(5-fluoro-2-methylpyridin-4-yl)-3-isopropyl-1H-indol-5-yl)piperidine-1-carbonyl)-1-methylpyrrolidin-2-one], the IC50 on human TLR8 is 0.0368 µM; on human TLR9, above 50 µM; against human TLR7, 0.0156 µM.

For the molecule `CC(=O)N1CCC(c2ccc3[nH]c(-c4cc(C)ncc4C)c(C(C)C)c3c2)CC1` [Example 584, 1-(4-(2-(2,5-dimethylpyridin-4-yl)-3-isopropyl-1H-indol-5-yl)piperidin-1-yl)ethan-1-one], the IC50 at human TLR8 is 0.0459 µM; at human TLR9, above 50 µM; against human TLR7, 0.043 µM.

For `Cc1cc(-c2[nH]c3ccc(C4CCN(C(=O)CN(C)C)CC4)cc3c2C(C)C)c(C)cn1` [Example 585, 2-(dimethylamino)-1-(4-(2-(2,5-dimethylpyridin-4-yl)-3-isopropyl-1H-indol-5-yl)piperidin-1-yl)ethan-1-one], the IC50 at human TLR8 came to 0.0052 µM; on human TLR9 it was 1.67 µM; against human TLR7, 0.0108 µM.

As to `Cc1cc(-c2[nH]c3ccc(C4CCN(C(=O)CN(C)C)CC4)cc3c2C(C)C)c(F)cn1` [Example 586, 2-(dimethylamino)-1-(4-(2-(5-fluoro-2-methylpyridin-4-yl)-3-isopropyl-1H-indol-5-yl)piperidin-1-yl)ethan-1-one], the IC50 at human TLR8 was determined as 0.0062 µM; at human TLR9 it was 3.04 µM; on human TLR7, 0.0026 µM.

On to `Cc1nccc(-c2[nH]c3ccc(C4CCN(C(=O)CN(C)C)CC4)cc3c2C(C)C)c1F` [Example 587, 2-(dimethylamino)-1-(4-(2-(3-fluoro-2-methylpyridin-4-yl)-3-isopropyl-1H-indol-5-yl)piperidin-1-yl)ethan-1-one], for which the IC50 was 0.0052 µM on human TLR8, 2.91 µM at human TLR9 and 0.0027 µM on human TLR7.

As for `Cc1cc(-c2[nH]c3ccc(C4CCN(C(=O)CN(C)C)CC4)cc3c2C(C)C)c(F)c(C)n1` [Example 588, 2-(dimethylamino)-1-(4-(2-(3-fluoro-2,6-dimethylpyridin-4-yl)-3-isopropyl-1H-indol-5-yl)piperidin-1-yl)ethan-1-one], the concentration for half-maximal inhibition (IC50) on human TLR8 amounted to 0.0013 µM; on human TLR9, 0.845 µM; at human TLR7, 0.0005 µM.

`Cc1cc(-c2[nH]c3ccc(C4CCN(C(=O)CCN(C)C5COC5)CC4)cc3c2C(C)C)cc(C)n1` [Example 589, 1-(4-(2-(2,6-dimethylpyridin-4-yl)-3-isopropyl-1H-indol-5-yl)piperidin-1-yl)-3-(methyl(oxetan-3-yl)amino)propan-1-one]: the IC50 at human TLR8 stood at 0.0276 µM; at human TLR9 it was 2.11 µM; against human TLR7, 0.0047 µM.

Take `Cc1cc(-c2[nH]c3ccc(C4CCN(C(=O)CN(C)C)CC4)cc3c2C2CC2)cc(C)n1` [Example 590, 1-(4-(3-cyclopropyl-2-(2,6-dimethylpyridin-4-yl)-1H-indol-5-yl)piperidin-1-yl)-2-(dimethylamino)ethan-1-one]: the IC50 on human TLR8 amounted to 0.0184 µM; on human TLR9 it was 0.142 µM; against human TLR7 it was 0.0042 µM.

On to `CCc1c(-c2ccnc(C)c2)[nH]c2ccc(C3CCN(C(=O)c4ccncc4)CC3)cc12` [Example 591, (4-(3-ethyl-2-(2-methylpyridin-4-yl)-1H-indol-5-yl)piperidin-1-yl)(pyridin-4-yl)methanone], for which the IC50 on human TLR8 turned out to be 0.241 µM; on human TLR9, 15.4 µM; against human TLR7 it was 0.251 µM.

Turning to `CCc1c(-c2ccnc(C)c2)[nH]c2ccc(C3CCN(C(=O)c4ccnc(F)c4)CC3)cc12` [Example 592, (4-(3-ethyl-2-(2-methylpyridin-4-yl)-1H-indol-5-yl)piperidin-1-yl)(2-fluoropyridin-4-yl)methanone], the IC50 was found to be 0.235 µM at human TLR8, 17.1 µM at human TLR9 and 0.276 µM against human TLR7.

For `CCc1c(-c2ccnc(C)c2)[nH]c2ccc(C3CCN(C(=O)C4CCN(C)CC4)CC3)cc12` [Example 593, (4-(3-ethyl-2-(2-methylpyridin-4-yl)-1H-indol-5-yl)piperidin-1-yl)(1-methylpiperidin-4-yl)methanone], the IC50 amounted to 0.0174 µM at human TLR8, 0.513 µM on human TLR9 and 0.043 µM on human TLR7.

In the case of `CCc1c(-c2ccnc(C)c2)[nH]c2ccc(C3CCN(C(=O)CCN(C)C)CC3)cc12` [Example 594, 3-(dimethylamino)-1-(4-(3-ethyl-2-(2-methylpyridin-4-yl)-1H-indol-5-yl)piperidin-1-yl)propan-1-one], the figures for the IC50 on human TLR8, at human TLR9 and against human TLR7 were 0.0394 µM, 0.61 µM and 0.0302 µM, respectively.

Broadly, the IC50 is the midpoint of a concentration-inhibition curve.
